Read-outs that look alike come from different tables or passages of the source. Marks after values point to notes of the source that are not given here.
Columns and labels:
[1] = target: T1, TXA2 receptor (Homo sapiens, UniProt P21731); experiment: Binding activity to TXA2 receptor in human platelet membrane fraction ([3H](+)-S-145 sodium salt)
T1 construct: The human platelet membrane fraction was prepared in accordance with Experiment 1 (1); from tissue; host or cells: human platelet membrane fraction from blood of healthy volunteers
T1 sequence (P21731 1-343): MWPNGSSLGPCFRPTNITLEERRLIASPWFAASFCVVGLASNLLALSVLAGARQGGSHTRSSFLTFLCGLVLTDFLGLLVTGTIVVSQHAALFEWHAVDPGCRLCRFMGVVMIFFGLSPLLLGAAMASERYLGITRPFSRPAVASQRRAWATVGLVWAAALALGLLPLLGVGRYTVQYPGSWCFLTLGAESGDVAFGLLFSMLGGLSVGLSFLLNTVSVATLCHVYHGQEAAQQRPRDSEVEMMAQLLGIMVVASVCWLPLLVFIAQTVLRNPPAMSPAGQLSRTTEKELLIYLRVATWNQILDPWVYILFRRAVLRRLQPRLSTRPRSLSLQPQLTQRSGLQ
Procedure: Experiment 2 Binding activity to TXA2 Receptor
(§1) (1) Preparation of Human Platelet Membrane Fraction
The human platelet membrane fraction was prepared in accordance with Experiment 1 (1).
(2) Binding to TXA2 Receptor
To a binding-reaction solution (50 mM Tris/HCl, pH 7.4, 10 mM MgCl2) (0.2 ml) were added the human platelet membrane fraction (0.05 mg) and 2 nM Sodium [^3H](+)-(5Z)-7- [3-endo- [(phenylsulfonyl)amino]bicyclo[2.2.1]hept-2-exo-yl]heptenoate (Japanese Patent Publication (Kokoku) No.79060/1993, hereinafter referred to as (+)—S—145 sodium salt) (26.4 Ci/mmol), and the mixture was reacted at room temperature for 90 min. After the reaction, the resultant mixture was filtered through a glass fiber filter paper and washed several times with cooled physiological saline, then the radioactivity retained on the filter paper was measured. The specific-binding ratio was calculated by subtracting the non-specific binding ratio (the radio activity similarly determined in the presence of 10 μM (+)—S—145 sodium salt) from the total binding.

[2] = target: T2, PGD2 receptor (Homo sapiens, UniProt Q13258); experiment: Binding activity to PGD2 receptor in human platelet membrane fraction ([3H]PGD2); design: The platelets were homogenized using a homogenizer (Ultra-Turrax) followed by centrifugation 3 times at 20,000 rpm; from tissue; host or cells: human platelet membrane fraction from blood of healthy volunteers
T2 sequence (Q13258 1-359): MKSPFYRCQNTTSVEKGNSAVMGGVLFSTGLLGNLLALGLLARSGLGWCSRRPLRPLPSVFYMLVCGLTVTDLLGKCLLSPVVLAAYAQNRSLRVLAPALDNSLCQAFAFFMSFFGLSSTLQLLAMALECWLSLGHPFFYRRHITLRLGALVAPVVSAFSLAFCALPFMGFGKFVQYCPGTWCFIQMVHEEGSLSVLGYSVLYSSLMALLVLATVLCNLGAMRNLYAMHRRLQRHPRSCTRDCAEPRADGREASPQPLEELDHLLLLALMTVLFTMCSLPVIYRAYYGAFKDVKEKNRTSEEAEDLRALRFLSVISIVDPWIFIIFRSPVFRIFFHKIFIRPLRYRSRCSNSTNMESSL
Procedure: Experiment 1 Binding activity to PGD2 Receptor
as §1
Blood was collected using a plastic syringe containing 3.8% sodium citrate from the vein of healthy volunteers (adult male and female), then put into a plastic test tube and mixed by slow-reversion. The sample was then centrifuged at 1800 rpm, for 10 min at room temperature, and the supernatant containing PRP (platelet-rich plasma) was collected. The PRP was recentrifuged at 2300 rpm, for 22 min at room temperature to obtain platelets. The platelets were homogenized using a homogenizer (Ultra-Turrax) followed by centrifugation 3 times at 20,000 rpm, 10 min at 4° C.. to obtain a platelet membrane fraction. After protein determination, the membrane fraction was adjusted to 2 mg/ml and preserved in a refrigerator at −80° C.. until using for the binding test.
(2) Binding to PGD2 Receptor
To a binding-reaction solution (50 mM Tris/HCl, pH 7.4, 5 mM MgCl2) (0.2 ml) were added the human platelet membrane fraction (0.1 mg) and 5 nM [^3H]PGD2 (115 Ci/mmol), and the mixture was reacted at 4° C. for 90 min. After the reaction, the mixture was filtered through a glass fiber filter paper and washed several times with cooled physiological saline, then the radioactivity retained on the filter paper was measured. The specific-binding ratio was calculated by subtracting the non-specific binding ratio which is the radioactivity similarly measured in the presence of 10 μM PGD2 from the total binding.

[3] = target: T2, PGD2 receptor; experiment: Antagonistic activity against PGD2 receptor using human platelet (inhibition of cAMP increase caused by PGD2); type: cell-based
Procedure: Experiment 3 Evaluation of Antagonistic Activity Against PGD2 Receptor Using Human Platelet
Peripheral blood was collected from a healthy volunteer using a syringe in which 1/9 volume of a citric acid/dextrose solution was previously added. The sample was subjected to centrifugation at 180 g for 10 min to obtain the supernatant (PRP: platelet rich plasma). The resultant PRP was washed 3 times with a washing buffer and the number of platelets was counted with a micro cell counter. A suspension adjusted to contain the platelets at a final concentration of 5×10^8/ml was warmed at 37° C., then subjected to the pre-treatment with 3-isobutyl-1-methylxanthine (0.5 mM) for 5 min. To the suspension was added a test compound diluted at various concentration, and 10 minutes later, 0.1 μM PGD2 was added to induce the reaction 2 minutes later, hydrochloric acid was added to terminate the reaction. The platelet was destroyed with an ultrasonic homogenizer. After centrifugation, the cAMP in the supernatant was determined by radioimmunoassay. PGD2 receptor antagonism of a drug was evaluated as follows: the inhibition rate regarding cAMP increased by the addition of PGD2 was determined at each concentration, and the concentration of the drug required for 50% inhibition (IC50) was calculated.

[4] = test system: Male Hartley guinea pigs; experiment: Antigen-induced bronchoconstriction; type: in vivo, guinea pig
Procedure: Antigen-induced bronchoconstriction
Male Hartley guinea pigs were passively sensitized by intravenous injection of anti-OVA serum (antibody titer: 1: 3200), and 48 hours later, the animals were challenged by intravenous injection of OVA (70 micro g/kg). The bronchoconstriction induced by antigen was continuously monitored by means of modified method of Konzett-Rössler technique. The peak value of bronchoconstriction in each animal was used for evaluation of compounds. Compound (I-1b) and compound (B-2) were orally administered 1 hour before, compound (A) 2 hours before antigen challenge. The results are shown as follows. *: P<0.05 vs Vehicle, ##: P<0.01 vs Vehicle. ( ): inhibition %.

[5] = test system: Male Hartley guinea pigs; experiment: Antigen-induced bronchial hyperresponsiveness; type: in vivo, guinea pig; details: acetylcholine dose for 200% increase in bronchoconstriction
Procedure: Antigen-induced bronchial hyperresponsiveness
Male Hartley guinea pigs were actively sensitized to ovalbumin (OVA) by inhalation of aerosolized solution of 1% ovalbumin twice at a week interval. One week after the second sensitization, the animals were treated with antihistamine, diphenhydramine (10 mg/kg, i.p.), and then challenged with 1% OVA aerosol for 5 min. Twenty four hours later, acetylcholine at doses at 3.13, 6. 25, 12.5, 25, 50 and 100 micro g/kg was sequentially injected into the animals which were anesthetized with pentobarbital (30 mg/kg, i.p.). The bronchoconstriction induced by each dose of acetylcholine was monitored by the modified method of Konzett-Rössler technique, and made a dose-response curve of acetylcholine. Using the dose-response curve, the dose required for 200% increase in bronchoconstriction from baseline (PD200) was calculated in each animal and used as an indication of bronchial responsiveness. Compounds were orally administered 1 hour before antigen challenge. **: P<0.01 vs Vehicle(Dunnett's test), ##: P<0.01 vs Vehicle(Student's t test).

[6] = Comparative Experiment 1, read-out: Experiment 2 Antaginistic activity against TXA2 receptor IC50
[7] = Comparative Experiment 1, read-out: Experiment 1 Antaginistic activity against PGD2 receptor IC50
[8] = Comparative Experiment 1, read-out: Experiment 3 Antaginistic activity against PGD2 receptor IC50
[9] = 2 nM [3H](+)-S-145 sodium salt, room temperature, 90 min, read-out: Binding activity to TXA2 receptor in human platelet membrane fraction IC50
[10] = 1 mg/kg orally 1 hour before antigen challenge
[11] = 10 mg/kg orally 1 hour before antigen challenge
[12] = 5 nM [3H]PGD2, 4° C., 90 min, read-out: Binding activity to PGD2 receptor in human platelet membrane fraction IC50
[13] = 0.1 μM PGD2, read-out: Inhibitory activity for the increase of cAMP caused by PGD2 in human platelet IC50

Row | SMILES | IC50 [1, 9] [nM] | IC50 [2, 12] [nM] | IC50 [3, 13] [nM] | also measured
1 | CC1(C)[C@H]2C[C@H](C/C=C\CCCC(=O)O)[C@@H](NC(=O)c3csc4ccccc34)[C@@H]1C2 [Compound B-1, reference compound] | – | – | – | IC50 [1, 6]: 3800 nM; IC50 [2, 7]: 8.2 nM; IC50 [3, 8]: 41 nM
2 | O=C(O)CCC/C=C\C[C@H]1[C@@H]2CC[C@@H](C2)[C@@H]1NC(=O)c1ccc(S(=O)(=O)n2cccc2)s1 [Compound I-1b, (5Z)-7-{(1R,2S,3S,4S)-3-[5-(pyrrol-1-ylsulfonyl)-thiophen-2-ylcarbonylamino]-bicyclo[2.2.1]hept-2-yl}-5-heptenoic acid] | 3 | 4.3 | 1.3 | IC50 [1, 6]: 3 nM; Peak bronchoconstriction [4, 10]: 47.4 ± 11.4 cm H2O; Peak bronchoconstriction, inhibition % [4, 10]: 31%; Peak bronchoconstriction [4, 11]: 28.4 ± 12.9 cm H2O; Peak bronchoconstriction, inhibition % [4, 11]: 58%; Log PD200 [5, 10]: 1.25 ± 0.05; Log PD200 [5, 11]: 1.52 ± 0.06**; IC50 [2, 7]: 4.3 nM; IC50 [3, 8]: 1.3 nM
3 | O=C(O)CCCC=CCC1C2CCC(C2)C1NC(=O)c1ccc(S(=O)(=O)c2cccs2)s1 (stereo not drawn) [Compound I-47] | 6.2 | 4.1 | 7 | –
4 | O=C(O)CCCC=CCC1C2CCC(C2)C1NC(=O)c1ccc(Sc2cccs2)s1 (stereo not drawn) [Compound I-59] | 16 | 0.41 | 4.6 | –
5 | O=C(O)CCCC=CCC1C2CCC(C2)C1NC(=O)c1ccc(Sc2ccsc2)s1 (stereo not drawn) [Compound I-79] | 15 | 0.42 | 24 | –
6 | O=C(O)CCCC=CCC1C2CCC(C2)C1NC(=O)c1ccc(S(=O)(=O)c2ccsc2)s1 (stereo not drawn) [Compound I-80] | 5.2 | 6.6 | 39 | –
7 | Cc1ccc(S(=O)(=O)c2ccc(C(=O)NC3C4CCC(C4)C3CC=CCCCC(=O)O)s2)s1 (stereo not drawn) [Compound I-82] | 1.8 | 32 | 53 | –
8 | O=C(O)CCCC=CCC1C2CCC(C2)C1NC(=O)c1ccc(Cc2ccsc2)s1 (stereo not drawn) [Compound I-88] | 78 | 7.6 | 4.7 | –
9 | O=C(O)CCCC=CCC1C2CCC(C2)C1NC(=O)c1ccc(Cc2cccs2)s1 (stereo not drawn) [Compound I-93] | 72 | 7 | 8.4 | –
10 | O=C(O)CCCC=CCC1C2CCC(C2)C1NC(=O)c1ccn(S(=O)(=O)c2cccs2)c1 (stereo not drawn) [Compound I-94] | 83 | 1 | 10 | –
11 | O=C(O)CCCC=CCC1C2CCC(C2)C1NC(=O)c1ccc(CSc2cccs2)s1 (stereo not drawn) [Compound I-104] | 39 | 0.1 | 1.6 | –
